Source: a melting point compilation (Tetko et al.; mined from patent text by program, amines drawn as free bases though some values may be those of a salt)

`C=CCn1c(=O)c2c(nc(/C=C/c3cc(OC)c(OC)c(OC)c3)n2C)n(CC=C)c1=O` showed a melting point of 189 to 191 °C.
`CNc1nc(NCc2ccc(NC(=O)c3ccc(Cl)nc3)cc2)c2c(C)cccc2n1` gave a melting point of 233 to 236 °C.
With `O=C(O)c1cc([N+](=O)[O-])ccc1NCc1ccccc1` the melting point was 238 to 248 °C.
With `COc1ccc(C(=O)Nn2c(=O)[nH]c3ccccc3c2=O)cc1` the melting point was 289 °C.
`O=S1(=O)c2cccc3c(Cl)ccc(c23)N1CCCN1CC=C(c2ccccc2)CC1` gave a melting point of 135 °C.
`CC(O)Cn1cncn1` (configuration not stated) showed a melting point of 110 to 112 °C.
With `CC1(C)OC(=S)Nc2ccc(-c3cccc(F)c3)cc21` the melting point was 194 to 195 °C.
Molecule `C(#CCN(Cc1ccccc1)Cc1ccccc1)CN(Cc1ccccc1)Cc1ccccc1` has a melting point of 105 to 106 °C.
`FC(F)(F)c1ccc(CCl)cc1` gave a melting point of 224 to 228 °C.
`CN1CCN(C=Nc2ccc3nnc(-c4ccc([N+](=O)[O-])o4)n3n2)CC1` showed a melting point of 247 to 248 °C.
With `CCCCOc1c(CN)n(CC(C)C)c(=O)c2ccc(/C=C/C(N)=O)cc12` the melting point was 173 to 175 °C.
For `CC(C)(C)C1=CC(=CC(=O)O)C=C(C(C)(C)C)C1=O`, the melting point was 148 to 150 °C.
For `O=C1CCCc2nc3ccccc3c(NCc3cccc(Cl)c3)c21`, the melting point was 138 to 140 °C.
`N#CCON=C(CCN1CCN(c2ccccn2)CC1)c1ccccc1` gave a melting point of 127 to 128 °C.
With `N#CCCNC(=O)c1cccc(-c2ccc3c(c2)N(c2ccc(Cl)cc2Cl)CC3)c1` the melting point was 148 to 154 °C.
Molecule `C[Si](C)(C)CCOCn1ccnc1-c1c(N)n(CC2CC2)c2nc(Cl)ccc2c1=O` has a melting point of 70 °C.
`CC12C=CCC1C1CC=C3CC(O)CCC3(CO)C1CC2` (configuration not stated) showed a melting point of 169 to 171 °C.
Work on `CCOC(=O)c1c(C)cc2c(=O)n(-c3cccc(Cl)c3)c(C)nc2c1C` yielded a melting point of 150 to 152 °C.
With `ON=C(c1cccc2nc(N[C@@H]3CCc4ccccc43)ccc12)C1CC1` the melting point was 151 °C.
Work on `Clc1ccc(Oc2cncc(Cl)n2)cc1` yielded a melting point of 92 to 93 °C.
Molecule `CCC(=O)Nc1c(N)cc(Br)cc1OCc1ccccc1` has a melting point of 198 to 201 °C.
`CN1CCN(Cc2cc(-c3ccccc3)c3c(n2)OCCN(Cc2cc(C(F)(F)F)cc(C(F)(F)F)c2)C3=O)CC1` showed a melting point of 181 to 182 °C.
With `CC12CCC3C(CCC4CC(O)CCC43C)C1CCC2C#N` (configuration not stated) the melting point was 156 to 158 °C.
With `CC(C)NC(=O)OCC(=O)c1ccc(C2CCCCC2)cc1` the melting point was 111 to 112 °C.
For `CCN(CC)c1ccc2c(c1)OC(=O)C(C)(C#Cc1ccccc1)C2` (configuration not stated), the melting point was 142 to 144 °C.
`Cc1ccc(CC(CNC(=O)C(C)c2ccc(NS(C)(=O)=O)c(Cl)c2)COC(=O)C(C)(C)C)cc1C` (configuration not stated) showed a melting point of 127 to 129 °C.
`CN(C)CC1CCCCN1CCCNC(=O)N1c2ccccc2NC(=O)c2ccccc21` (configuration not stated) showed a melting point of 131 to 133 °C.
`COC(=O)c1nc(N(C)C)ccc1Oc1nc(OC)cc(OC)n1` gave a melting point of 125 to 127 °C.
Work on `COc1ccc(OC)c2c1CC[C@](O)(C(=O)O)C2` yielded a melting point of 91 to 93 °C.
With `O=C(O)c1cc(Oc2cc(F)c(C(F)(F)F)c(Cl)c2)ccc1Br` the melting point was 113 to 117 °C.
Molecule `Cc1c(OCc2ccccc2)ccc2c(O)c(C(=O)Nc3cccc(F)c3)c(=O)oc12` has a melting point of 220 °C.
Molecule `CCCCCCCCCCC1(CCCCCCCCCC)c2cc(Br)ccc2-c2ccc(Br)cc21` has a melting point of 38.1 to 38.4 °C.
Work on `CCCCCCCCCCCP(=O)(c1ccccc1)c1ccccc1` yielded a melting point of 69 °C.
Molecule `CC(C)CNc1sc(-c2cc[nH]n2)c2c1C(=O)CC(C)(C)C2` has a melting point of 208 to 210 °C.
With `CN(C)c1cccc(C(=O)N2CCC3(CC2)CSC2=C(O3)c3ccccc3C(=O)C2=O)c1` the melting point was 170 to 172 °C.
Molecule `CCOc1cc(CC)ccc1C1CCN(CCCCNC(=O)c2ccc(NC(=O)c3ccc(Cl)cc3)cc2)CC1` has a melting point of 250 °C.
For `Nc1cc(Cl)ccc1-n1cccc1`, the melting point was 89 to 90 °C.
`CC1(Cc2cc(C(C)(C)C)c(O)c(C(C)(C)C)c2)CCCCC1=O` (configuration not stated) gave a melting point of 75 °C.
Work on `Oc1ccc(Nc2ccc3cc(Br)ccc3c2)cc1` yielded a melting point of 179 to 180 °C.
`CCc1cc2c(s1)-n1c(C)nnc1C(CC(=O)Nc1ccccc1)N=C2c1ccc(Cl)cc1` (configuration not stated) gave a melting point of 238 to 239 °C.
For `Cc1c(N2CCc3c(-c4ccccc4)cccc32)nc2ccc(F)cc2c1C(=O)O`, the melting point was 157 to 159 °C.
Molecule `NC(=O)CNC(=O)c1cccc(-c2c(F)ccc3cc(Cc4cccc(C(F)(F)F)c4)sc23)c1` has a melting point of 130 to 131 °C.
Molecule `CCOC(=O)C1=C2C(=CC3=C(CCCC3)N2O)SC1C` (configuration not stated) has a melting point of 135 to 136 °C.
Molecule `O=S(CCCCl)Cc1ccccc1` (configuration not stated) has a melting point of 70 to 71 °C.
With `O=C1c2ccccc2C(=O)C1(CCN1CCC(c2noc3cc(F)ccc23)CC1)c1ccccc1` the melting point was 149 to 150 °C.
For `CC1(C)C=C(c2ccccn2)c2cc(C(=O)O)ccc2O1`, the melting point was 238 to 240 °C.
Molecule `CCOC(=O)CCC1CCCC2CCC(=O)NC21` (configuration not stated) has a melting point of 45 to 50 °C.
`COc1cc(OC)c2c(=O)cc(-c3ccccc3)oc2c1` gave a melting point of 147 to 149 °C.
Work on `CCCCc1nc(Cl)c(C(N)=O)n1Cc1ccc2oc(-c3ccccc3-c3nnn[nH]3)c(Br)c2c1` yielded a melting point of 131 to 133 °C.
`COc1cc2c(cc1OC)C(=O)CCCO2` gave a melting point of 87 to 88 °C.
For `CC(C)(C)OC(=O)NCCCCCCO`, the melting point was 36 to 37 °C.
For `CC1CN(c2n[nH]c(-c3ccc(Cl)cc3)c2-c2ccncc2)CC(C)N1` (configuration not stated), the melting point was 236 to 238 °C.
With `CCc1cccc2c3c([nH]c12)C(CC)(CC(=O)O)CCC3c1ccccc1` (configuration not stated) the melting point was 140 to 142 °C.
`CCOC(=O)c1cnc2c3ccccc3ccn2c1=O` showed a melting point of 183 to 184 °C.
With `Nc1cccc(NC(=O)C(F)(F)C(F)(F)F)c1` the melting point was 86 to 88 °C.
In the case of `COc1ccc(CN2CCC(c3cn(Cc4ccc(Cl)s4)c4cccnc34)CC2)cc1C(=O)O`, the melting point is reported as 201 to 202 °C.
For `Cc1oc(=O)oc1CSc1ccc(Cl)cc1`, the melting point was 54 to 57 °C.
`CCc1nc(Br)c(Br)[nH]1` showed a melting point of 149 to 150 °C.
With `OC1CSC(Oc2cccc(-c3cccnc3F)c2)C(O)C1O` (configuration not stated) the melting point was 160 °C.
`CN1CCNC1=C(Br)[N+](=O)[O-]` showed a melting point of 97 °C.
For `Cc1c(-c2ccccc2)n(-c2ccccc2)c(-c2ccc(C#N)cc2)cc1=O`, the melting point was 229 to 233 °C.
`COc1ccc2ccc(C(=O)NCc3ccccc3)c(OC(C)C)c2c1` showed a melting point of 88 to 90 °C.
With `CC1NC(=O)NN=C1c1ccc(NC(=O)CN2CCOCC2)cc1` (configuration not stated) the melting point was 244 to 247 °C.
For `CCOC(=O)CCCOc1cccc2cc(C(C)=O)oc12`, the melting point was 47.1 to 48.4 °C.
Work on `COCc1ncc(C(=O)OC)n1C` yielded a melting point of 74 to 77 °C.
With `CN1C(=O)COC(c2cccc(Cl)c2)c2cc(C(O)(c3ccc(Cl)cc3)c3cncn3C)ccc21` (configuration not stated) the melting point was 160 °C.
Molecule `CCOC(=O)c1nccc2c(C)c3c(cc12)c1cc(OC)ccc1n3CC` has a melting point of 149 °C.
For `C=CC(=O)OCc1cn(CCCCCCCCCCCCCCCC)nn1`, the melting point was 72 to 73 °C.
In the case of `Cn1c(=O)[nH]c2cccc(I)c2c1=O`, the melting point is reported as > 300 °C.
`Cc1cc(C)cc(Oc2[nH]c(=O)[nH]c(=O)c2C(C)C)c1` showed a melting point of 91 to 92 °C.
For `Cc1nccn1-c1ccc(OCCO)cc1`, the melting point was 125 to 127 °C.
Molecule `COc1ccc(C2CCOCC2)cc1N` has a melting point of 102 to 103 °C.
`Cc1cc(C)nc(NC(=O)NS(=O)(=O)c2cc(Cl)sc2Cl)n1` showed a melting point of 192 to 194 °C.
Work on `NC(=O)CC[C@H](NC(=O)CCc1ccc(OCc2ccccc2)cc1OCc1ccccc1)C(=O)N1CCN(c2ccccc2)CC1` yielded a melting point of 118 to 120 °C.
In the case of `COC(=O)c1ccc(-c2ccccc2)cc1S(=O)(=O)NC(=O)Nc1nc(C)nc(OC)n1`, the melting point is reported as 198 to 200 °C.
With `FC(F)(F)Oc1ccc(-c2ccc3[nH]c4c(ccc5cc[nH]c54)c3c2)cc1` the melting point was > 250 °C.
Molecule `CC(=O)NC[C@H]1CN(c2ccc(N3CCC(n4nnc(N5CCOCC5)n4)CC3)c(F)c2)C(=O)O1` has a melting point of 210 to 214 °C.
Molecule `CC(C)=C(C(=O)OCc1ccccc1)N1C(=O)C(Br)(Br)C1Br` (configuration not stated) has a melting point of 68 to 70 °C.
`O=C1CCC(N2C(=O)c3cccc(OCc4ccc(CN5CCc6ncccc6C5)cc4)c3C2=O)C(=O)N1` (configuration not stated) gave a melting point of 165 to 167 °C.
In the case of `CC1=C(CO)C(=O)OC(C(C)C2CCC3C4CC5OC56C(O)C=CC(=O)C6(C)C4CCC23C)C1` (configuration not stated), the melting point is reported as 227 to 228 °C.
With `CCOC(=O)c1ccc(CCN(C)CCCC(C#N)(c2ccc(OC)c(OC)c2)C(C)C)cc1` (configuration not stated) the melting point was 111 to 112 °C.
`O=C(O)/C=C\C=C(c1ccccc1)c1ccccc1` gave a melting point of 175 to 176 °C.
`COc1ccnc(C#N)c1OC` gave a melting point of 133 °C.
With `Cc1cc2c(cc1C(F)(F)F)NCC2` the melting point was 43 to 44 °C.
Work on `CCCN(CCC)S(=O)(=O)c1ccc(C(CC2CCCC2)C(=O)Nc2nc3ccc(OC)nc3s2)cc1` (configuration not stated) yielded a melting point of 64 to 66 °C.
Molecule `COc1cc(C(=O)OC(C)(C)C)ccc1Cn1cc(C=O)c2ccc(C(=O)NCC3CCCC3)cc21` has a melting point of 134 to 135 °C.
`N#CC=C1CC2(CCCC2)c2ccccc21` showed a melting point of 82 °C.
`O=C(O)Cc1ccc(NC(=O)c2ccc(Cl)cc2)cc1` showed a melting point of 252 °C.
For `CN=C(N)Nc1nc(-c2cccc(C(=O)NCCN)c2)cs1`, the melting point was 214 to 216 °C.
In the case of `COc1cc(C(C)C)c2c(c1)S(=O)(=O)N(COC(=O)C1CCC(=O)N1)C2=O` (configuration not stated), the melting point is reported as 159 to 160 °C.
In the case of `N#Cc1ncn2c(C(F)(F)F)cc(-c3ccc(Cl)cc3)nc12`, the melting point is reported as 205 °C.
`CS(=O)(=O)c1ccc(Oc2ccc3[nH]c(C4=NCC(CC(=O)NCC(F)(F)F)S4)cc3c2)cn1` (configuration not stated) showed a melting point of 234 to 235 °C.
Molecule `O=C1CC2(C(=O)N1)C(=O)N(Cc1ccc(Br)cc1)c1ccccc12` (configuration not stated) has a melting point of 218 to 220 °C.
`Cc1ccc(-c2cc(C(F)(F)F)n3cnc(C#N)c3n2)cc1` showed a melting point of 197 °C.
In the case of `COC(C)C#Cc1ncn2c1CN(C)C(=O)c1c(Cl)cccc1-2` (configuration not stated), the melting point is reported as 139 to 141 °C.
With `Cc1ccc2c(c1)NC(=O)c1ccccc1O2` the melting point was 231 to 232 °C.
`Nc1cccc(Oc2ccc(C(c3ccc(Oc4cccc(N)c4)cc3)(C(F)(F)F)C(F)(F)F)cc2)c1` showed a melting point of 137 to 139 °C.
`COC(=O)CCCc1cc2nc(Cl)ccc2n1S(=O)(=O)c1ccc2ncccc2c1` showed a melting point of 133 to 141 °C.
`COc1ccc2c(c1Br)CCC1CN(C)CC21` (configuration not stated) showed a melting point of 144 to 146 °C.
`CC(=O)N1CCC(Oc2ccc(N3CCCC3)cc2)CC1` gave a melting point of 69 to 70 °C.
`CC(C)Oc1cc(CCCNC(=O)NS(=O)(=O)c2ccccc2)n(Cc2ccc(Cl)cc2Cl)n1` showed a melting point of 149 °C.
Work on `O=C(O)c1ccc2c(c1)C(c1ccccc1Cl)=NC=C1N=NC(C3CC3)N12` (configuration not stated) yielded a melting point of 170 to 175 °C.
